Structures are written as SMILES. “Also recorded” adds a separate entry of the source.

The values below come from US20140161720A1, “TREATMENT OF ANGIOGENIC- OR VASCULAR-ASSOCIATED DISEASES” (THE GENERAL HOSPITAL CORPORATION, priority 2011, published 2014).

One series addresses recombinant purified IDO (Homo sapiens, UniProt P14902). The settings on record: cited (He et al., 2008); cited from earlier work.
A further series deals with Rac1 mRNA. Put plainly: Rac1 mRNA expression by quantitative PCR. Type of series: cell-based.
The subject of a further series is HUVEC. Put plainly: In vitro vascular network formation on matrigel. Type of series: cell-based, human. The procedure:
For F-actin visualization, HUVECs were plated and treated with saline or DAL (10 μM) for three hours. After fixing and permeabilizing these cultured cells, the cells were subsequently stained with phalloidin. […] Existing cordlike structures, when exposed to 10 μM of DAL for 3 hours, were also disrupted. […] HUVEC monolayers were disrupted mechanically with a pipette tip and the migration of cells to “heal” the wound was monitored using microscopy.
To assess whether DAL affects EC functions, in vitro models of vascular network formation from HUVECs were used. After overnight cultivation in matrigel, HUVECs spontaneously assemble into cord-like structures that resemble vascular networks. […] Since DAL affects actin cytoskeleton assembly, the effect of DAL on cell motility was next assessed. A scratch wound assay was utilized to study HUVEC motility based on the healing rate of a wounded monolayer.

Details of series [1]: species or system female SCID mice. The settings on record: mouse, in vivo, ip, 37.5 mg/kg. The procedure:
(§1) To assess the anti-tumor effects of DAL, female SCID mice bearing orthotopic 4T1 or E0771 mammary tumors were treated with daily i.p. injections of 37.5 mg/kg DAL or saline. In order to calculate tumor volumes, the major and minor axis diameters were measured with calipers and the tumor volume was calculated by assuming a spherical shape based on the average of these two dimensions. The tumors were implanted in the mammary fat pad and allowed to grow to a starting size (small ˜100 mm^3 tumors for E0771, large ˜200 mm^3 tumors for 4T1) over ˜2 weeks. To ensure that tumors in the two groups were of similar growth rates, the treatment with saline or DAL was begun in pairs of tumors with similar sizes and growth times. Tumor volumes were measured every other day until the tumors reached an average of ˜10 mm in diameter. Tumor growth was quantified with the doubling rate, and calculated by fitting an exponential growth curve to the data for tumor size versus time.
(§2) As shown in Example 3, DAL has an antivascular effect in orthotopic mammary tumors in mice. Thus, the antitumor effect of DAL was next assessed. […] The effect of DAL on the growth of orthotopic 4T1 and E0771 mammary tumors with daily treatment of DAL or saline was evaluated (FIG. 4A). 37.5 mg/kg of DAL was used for these experiments based on the pharmacokinetics results as well as in vitro and in vivo data. […]

The subject of the next series is RhoA. Put plainly: RhoA activity affinity purification assay (rhotekin RBD). Particulars: HUVEC cells. Type of series: cell-based, human. The source says: Without wishing to be bound by theory, DAL brings about its antivascular effects by destabilizing cell adhesion through the actin cytoskeleton. It was next sought to identify which specific adhesion pathway it targets. Mechanical attachment at cell-cell adherens and tight junctions is regulated by dynamic changes in the actin cytoskeleton. Adherens junctions are composed of E-cadherin/β-catenin complexes and are connected to the actin cytoskeleton via sa-catenin (25-26), while tight junctions consist of transmembrane claudins and occludin and are associated with the actin cytoskeleton via ZO proteins (27-28). Therefore, potential targets of DAL in signaling pathways involved in actin remodeling were evaluated. […] Then, it was sought to determine whether Rho-GTPase family members are targets for DAL due to the disruption of cell adhesion and actin network remodeling along with inhibited motility. Rho-GTPases (e.g., Rac1) plays an important role in actin cytoskeletal organization and is involved in the coordination of cell adhesion (29). Furthermore, Rac1 is responsible for stabilizing endothelial cell junctions by opposing actin remodeling by Rho (30). In order to migrate, cancer cells employ dynamic remodeling of the actin cytoskeleton, form protrusive structures and generate forces necessary to produce cell translocation in the process regulated by Rho-GTPase Rac1. […]

Series [2] deals with orthotopic E0771 mammary tumors. Put plainly: Tumor growth delay study, E0771. In kind it is in vivo, female SCID mice. Particulars: start ~100 mm^3, 37.5 mg/kg daily i.p. The procedure:
as §1, §2

Series [3] relates to Tg(fli1:EGFP)^y1 zebrafish embryos. Briefly: Vascular development in zebrafish embryos. Type of series: in vivo. The procedure: Zebrafish were raised in accordance with the established protocols (19-20). The age of embryos is indicated by the hours after fertilization and days after fertilization for all experimental data shown herein. For the screening study, zebrafish embryos were incubated with the selected compounds at a concentration of 5-10 μM. Treated embryos were then examined under a 100× PlanNeofluor objective mounted on a Nikon TE-200 epifluorescence microscope. Images of embryos bearing GFP-positive cells were captured with a Zeiss stereomicroscope.
To elucidate the potential impact of DAL on the process of vascular network formation, its effects in zebrafish embryos at different stages of development were assessed. To visualize vessel defects, transgenic fish expressing EGFP in endothelial cells (Tg(fli1:EGFP)^y1) were used (19-20). This model expresses EGFP in blood vessel ECs throughout normal development and during fin regeneration (21). The effects of DAL on normal vascular development in zebrafish embryos were first characterized. In control embryos, developing vessels migrated from the lateral plate mesoderm to the midline, where they coalesced into a vascular cord. These endothelial clusters subsequently established the pattern of the dorsal aorta and posterior cardinal vein. Intersomitic vessels sprouted at designated branch sites in control embryos after dorsal aorta formation.

recombinant purified IDO, sequence (P14902 whole entry): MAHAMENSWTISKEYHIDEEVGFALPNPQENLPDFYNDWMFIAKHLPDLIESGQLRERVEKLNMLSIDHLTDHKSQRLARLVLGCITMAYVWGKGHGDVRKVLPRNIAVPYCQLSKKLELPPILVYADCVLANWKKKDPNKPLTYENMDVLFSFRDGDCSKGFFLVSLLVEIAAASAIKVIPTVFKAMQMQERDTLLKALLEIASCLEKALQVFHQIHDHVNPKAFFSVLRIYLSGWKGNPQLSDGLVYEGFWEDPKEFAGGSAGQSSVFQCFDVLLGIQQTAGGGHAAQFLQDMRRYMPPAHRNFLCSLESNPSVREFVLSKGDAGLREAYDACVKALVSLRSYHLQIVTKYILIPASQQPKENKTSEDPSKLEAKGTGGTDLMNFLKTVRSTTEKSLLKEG

Take `CC1(C)C=CC2=C(O1)C(=O)c1ccccc1C2=O` [DAL, dehydro-alpha-lapachone]: the “mode of IDO inhibition with respect to L-tryptophan” value on recombinant purified IDO is reported as “non-competitive”. Also, in the series with Rac1 mRNA, the “expression levels of Rac1 mRNA” value is listed as “did not change”. Further, the “effect on existing cordlike networks” value with HUVEC (10 μM for 3 hours) is given as “complete reorganization of existing networks; also recorded: disrupted”. Besides, the “HUVEC network formation on matrigel” value with HUVEC (after 24 hours / overnight cultivation) is reported as “blocks HUVEC network formation; also recorded: disjoined networks”. In series [1], the “weight loss or other signs of toxicity” value is reported as “no weight loss or other noted signs of toxicity”. Further, in the series on RhoA, the RhoA activity entry was “no effect”. Besides, the “tumor volume doubling time” value in series [2] stood at 4.77 ± 0.58 days. The “complexity of the arterial network” value in series [3] (zebrafish embryos) was “profound reduction”. In addition, the “vessel branch formation / sprouting of intersomitic vessels” value in series [3] (zebrafish embryos 48 hours after fertilization, DAL 5 μM) is given as “failed to occur; also recorded: failed to form vessel branches”.
